Molecules are shown by their SMILES. Converted amounts (≈) assume the structure as drawn.

This is an account of results in US20080194640A1, “Optically Active Tetrahydronaphthalene Derivative” (priority 2005, published 2008).

The target of one data set is T1, C5a receptor (Homo sapiens, UniProt P21730).
T1 construct: neutrophil fraction was separated from human peripheral intravenous blood; endogenous in cells; host or cells: human peripheral blood neutrophils (whole cells)
T1 sequence (P21730 1-350): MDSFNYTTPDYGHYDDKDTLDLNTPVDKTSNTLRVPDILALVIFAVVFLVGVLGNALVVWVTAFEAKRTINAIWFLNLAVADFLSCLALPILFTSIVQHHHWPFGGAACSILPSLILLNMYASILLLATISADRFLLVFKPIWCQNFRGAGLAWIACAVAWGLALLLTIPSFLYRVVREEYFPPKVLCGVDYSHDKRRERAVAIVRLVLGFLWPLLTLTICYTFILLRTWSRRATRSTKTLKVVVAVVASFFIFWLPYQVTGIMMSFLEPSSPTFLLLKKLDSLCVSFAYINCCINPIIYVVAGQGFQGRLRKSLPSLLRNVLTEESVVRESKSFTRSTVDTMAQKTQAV
The data set can be described thus: C5a receptor binding assay ([125I]-human C5a, human peripheral blood neutrophil). The note with it: [125I]-C5a 200 pM, 4° C. for 2 hr, read-out: IC50 value, inhibition of [125I]-human C5a binding. How it is done:
The C5a receptor binding inhibitory action of C5a and the test compound was evaluated by a receptor binding assay comprising of human peripheral blood neutrophil, which expresses the C5a receptor, and [^125I]-human C5a (Amersham Pharmacia Biotech) in a MultiScreen (MILLIPORE). First, neutrophil fraction was separated from human peripheral intravenous blood using lympholyte-poly (Cedarlane), and suspended in a Binding buffer [50 mM HEPES, 1 mM CaCl2, 5 mM MgCl2, 0.5% bovine albumin (BSA, SIGMA), 0.02% NaN3 (pH 7.2)]. The binding assay was started by the addition of 1×10^5 cells/50 μL neutrophil suspension, 25 μL of a test compound solution (obtained by dissolving the test compound in N,N-dimethylformamide to a final concentration of 10 mmol/L and diluting with binding buffer), and 25 μL of [^125I]-C5a solution (final concentration 200 pM), to each well of the MultiScreen. […] After drying the MultiScreen, the radioactivity on the filter was measured using a gamma counter.
The rate of inhibition (% inhibition) of C5a binding by the test compound was calculated by the following formula using the count value obtained without addition of the test compound as Total, the count value obtained with addition of non-labeled C5a as Non, and the count value obtained with addition of the test compound as Test. […]

A short description of data set [1]: Solubility test (Japanese Pharmacopoeia Solution 2). It is filed as physicochemical. Conditions: pH 6.8, aqueous buffer, thermodynamic from solid; Japanese Pharmacopoeia Solution 2, 37° C., shaken 30 min; read-out: solubility after 30 min. The method, then: An adequate amount of a sample was taken, and a test solution (The Japanese Pharmacopoeia Solution 2) was added to each to a concentration of about 1 mg/ml. The sample was dispersed by ultrasonication for 2 min, shaken at 37° C. for 30 min, and the solution was filtered through DISMIC13HP ([…]). The filtrate in the early stage (3 ml) was removed, the subsequent filtrate (500 μl) was precisely measured, and the dilution solution (water/acetonitrile/trifluoroacetic acid mixture=500:500:1, 500 μl) was accurately added to give a sample solution. The sample solution and the standard solution prepared in Experimental Example 5 were subjected to the measurement under the similar HPLC conditions as in Experimental Example 5.

With `CCn1cc(CN(C(=O)C2CCCc3c(O)cccc32)c2ccc(C(C)C)nc2)cn1` (racemic) [racemate of the compound of Example 3, N-[(1-ethyl-1H-pyrazol-4-yl)methyl]-5-hydroxy-N-(6-isopropylpyridin-3-yl)-1,2,3,4-tetrahydronaphthalene-1-carboxamide, reference compound], the IC50 (as a rule, the concentration that inhibits the measured activity by half) at C5a receptor is 23 nM. The solubility – broadly, how much of the substance goes into solution per volume – at 30 min in data set [1] came out at 31 µg/mL (≈ 74.1 µM).
